Laboratory results published in publication PMC7756666, “Non‐Stationary Complementary Non‐Uniform Sampling (NOSCO NUS) for Fast Acquisition of Serial 2D NMR Titration Data” (Angewandte Chemie (International Ed. in English), 2020).
Ends that are not written are not given here.

Molecular target: T1, SH3 domain of α‐spectrin (Gallus gallus, UniProt P07751)
T1 construct: SH3 domain of α‐spectrin, has 60 residues
Experiment: NMR titration (2D 1H-15N HSQC), p41 binding by SH3
Details: system as introduced in text; pH 3.5; 8 ligand-to-protein ratios; no spread given; read-out: KD (dissociation constant)
Source text: The critical information on molecular dissociation constants, K D, and chemical shift perturbation (CSP) amplitudes, Δv, can be derived by individually fitting the correlated signal frequencies, observed in the 2D protein NMR spectra of a titration series, to the equation [Eq. 1]:(1) νI=νI,0+f(x,KD)·ΔνI
where [Eq. 2](2) f(x,KD)=KD+(1+x)cP-(KD+(1+x)cP)^2-4cP2x/2cP
v I is the observed chemical shift (I=^15N or^1H ), v I,0 is the pertaining reference chemical shift in the absence of ligand; Δv I is the maximal CSP amplitude due to ligand binding; x=c L/ c P is the ligand to protein molar ratio; c P is the total protein concentration.
NMR frequency sampling in an indirect time dimension is a lengthy process (fundamental reasons described in SI). Here we propose a method for complementary non‐uniform sampling (NUS) of entire titration series of 2D ^1H‐^15N HSQC spectra within less time even than required for a single conventional spectrum. For this we sample the indirect t 1(^15N) dimension as in a standard NUS experiment, yet with complementary sampling schedules for the different titration points such that each ligand‐to‐protein ratio, x, is sampled for a unique set of t 1 times (Figure 1). A full grid of 256 t 1 increments in a titration series with 8 different x ratios would, thus, be sampled in 8 complementary schedules of 32 points. […]

T1 sequence (P07751 967-1026 limits assumed): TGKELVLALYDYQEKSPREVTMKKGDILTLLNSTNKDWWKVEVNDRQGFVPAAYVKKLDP

- Kd: 9 mM
Sequence: APSYSPPPPP [p41]
